This is an account of results in ChEMBL document CHEMBL2074179, “Comparison of "type I" and "type II" organic cation transport by organic cation transporters and organic anion-transporting polypeptides” (J Pharmacol Exp Ther, 2001).

Several values for one entry are separate records, joined by “and”; a condition that tells them apart may be missing. Identical values can stand only once.

For series [1], the target named is T1, Solute carrier family 22 member 1 (Homo sapiens, UniProt O15245).
T1 sequence (O15245 whole entry): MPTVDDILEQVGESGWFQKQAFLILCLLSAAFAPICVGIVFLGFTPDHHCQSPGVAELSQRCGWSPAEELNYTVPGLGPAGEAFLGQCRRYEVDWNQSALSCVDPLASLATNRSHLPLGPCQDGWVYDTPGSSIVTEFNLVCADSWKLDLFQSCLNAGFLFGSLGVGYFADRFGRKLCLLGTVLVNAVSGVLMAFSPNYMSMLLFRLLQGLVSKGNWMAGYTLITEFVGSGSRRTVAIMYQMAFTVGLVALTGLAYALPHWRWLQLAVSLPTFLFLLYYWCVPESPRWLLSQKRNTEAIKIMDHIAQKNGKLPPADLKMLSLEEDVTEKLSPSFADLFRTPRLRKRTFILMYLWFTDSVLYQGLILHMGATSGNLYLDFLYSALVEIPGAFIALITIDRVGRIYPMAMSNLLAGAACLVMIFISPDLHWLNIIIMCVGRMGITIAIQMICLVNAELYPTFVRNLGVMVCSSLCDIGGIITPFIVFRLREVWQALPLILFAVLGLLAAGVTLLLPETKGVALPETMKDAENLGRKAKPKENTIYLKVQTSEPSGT
As to the kind of experiment: (§1) TP_TRANSPORTER: uptake in Xenopus laevis oocytes. The series is classed as functional, cell-based. Conditions: oocyte.

For series [2], the target named is T2, Solute carrier family 22 member 1 (Rattus norvegicus, UniProt Q63089).
T2 sequence (Q63089 whole entry): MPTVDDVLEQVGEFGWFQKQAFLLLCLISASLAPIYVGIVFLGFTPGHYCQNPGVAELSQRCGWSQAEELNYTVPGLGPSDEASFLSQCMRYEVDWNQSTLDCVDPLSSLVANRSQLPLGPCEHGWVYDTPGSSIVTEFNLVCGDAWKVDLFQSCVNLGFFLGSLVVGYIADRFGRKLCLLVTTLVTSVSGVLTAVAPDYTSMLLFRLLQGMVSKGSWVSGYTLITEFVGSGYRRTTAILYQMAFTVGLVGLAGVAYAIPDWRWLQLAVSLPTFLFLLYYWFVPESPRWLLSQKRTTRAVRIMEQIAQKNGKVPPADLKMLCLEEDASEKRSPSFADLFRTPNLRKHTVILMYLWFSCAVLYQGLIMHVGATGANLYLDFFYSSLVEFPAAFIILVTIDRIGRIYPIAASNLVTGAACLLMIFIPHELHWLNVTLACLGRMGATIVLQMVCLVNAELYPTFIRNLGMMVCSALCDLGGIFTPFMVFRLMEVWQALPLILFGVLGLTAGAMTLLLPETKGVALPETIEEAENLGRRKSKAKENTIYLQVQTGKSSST
Described as §1. Type of series: functional, cell-based. The following applies: oocyte.

Series [3] addresses T1, Solute carrier family 22 member 1. Briefly: (§2) TP_TRANSPORTER: inhibition of TBuMA uptake in Xenopus laevis oocytes. Type of series: functional, cell-based. Conditions: oocyte.
In series [4] the target is T2, Solute carrier family 22 member 1. Described as §2. The series is classed as functional, cell-based. The following applies: oocyte.
Series [5] has as its target T3, Solute carrier organic anion transporter family member 1A2 (Homo sapiens, UniProt P46721).
T3 sequence (P46721 whole entry): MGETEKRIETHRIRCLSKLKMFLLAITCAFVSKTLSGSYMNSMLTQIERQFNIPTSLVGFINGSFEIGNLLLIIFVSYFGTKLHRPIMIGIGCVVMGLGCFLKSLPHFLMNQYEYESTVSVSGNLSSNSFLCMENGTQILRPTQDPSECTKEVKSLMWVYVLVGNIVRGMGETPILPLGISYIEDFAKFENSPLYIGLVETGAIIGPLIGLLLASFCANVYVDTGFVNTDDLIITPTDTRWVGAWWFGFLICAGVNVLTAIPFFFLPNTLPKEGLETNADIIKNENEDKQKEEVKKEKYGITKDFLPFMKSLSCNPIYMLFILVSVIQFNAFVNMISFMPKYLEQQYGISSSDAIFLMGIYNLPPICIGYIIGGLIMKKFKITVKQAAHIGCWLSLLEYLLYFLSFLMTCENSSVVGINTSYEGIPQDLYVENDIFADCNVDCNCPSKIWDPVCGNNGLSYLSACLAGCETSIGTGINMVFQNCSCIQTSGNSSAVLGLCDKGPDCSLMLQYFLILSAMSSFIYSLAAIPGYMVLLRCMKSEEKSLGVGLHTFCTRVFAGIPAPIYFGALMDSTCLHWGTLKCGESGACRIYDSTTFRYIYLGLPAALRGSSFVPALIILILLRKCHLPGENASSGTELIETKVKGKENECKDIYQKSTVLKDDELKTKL
As to the kind of experiment: (§3) TP_TRANSPORTER: inhibition of Rocuronium uptake in Xenopus laevis oocytes. The following applies: oocyte. The series is classed as functional, cell-based.

The target in series [6] is T4, Solute carrier organic anion transporter family member 1A4 (Rattus norvegicus, UniProt O35913).
T4 sequence (O35913 whole entry): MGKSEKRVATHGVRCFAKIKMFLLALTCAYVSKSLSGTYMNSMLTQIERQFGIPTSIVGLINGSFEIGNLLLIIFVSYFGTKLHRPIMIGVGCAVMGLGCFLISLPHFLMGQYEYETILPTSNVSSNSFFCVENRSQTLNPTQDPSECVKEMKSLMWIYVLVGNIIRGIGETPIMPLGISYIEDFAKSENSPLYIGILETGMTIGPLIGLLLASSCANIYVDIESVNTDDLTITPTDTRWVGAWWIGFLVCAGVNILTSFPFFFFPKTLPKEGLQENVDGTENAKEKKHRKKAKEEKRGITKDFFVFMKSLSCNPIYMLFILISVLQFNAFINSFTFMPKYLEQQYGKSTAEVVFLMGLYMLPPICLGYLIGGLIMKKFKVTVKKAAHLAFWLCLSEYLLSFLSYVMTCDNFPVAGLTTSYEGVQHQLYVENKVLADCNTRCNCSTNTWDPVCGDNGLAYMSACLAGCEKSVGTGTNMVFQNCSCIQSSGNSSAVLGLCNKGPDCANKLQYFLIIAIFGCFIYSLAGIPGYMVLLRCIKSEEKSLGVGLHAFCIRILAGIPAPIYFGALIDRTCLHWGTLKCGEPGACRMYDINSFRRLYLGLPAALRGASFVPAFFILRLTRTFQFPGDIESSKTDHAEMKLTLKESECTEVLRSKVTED
The series is described as §3. The series is classed as functional, cell-based. The following applies: oocyte.

Series [7] addresses T2, Solute carrier family 22 member 1. The description is as §3. Conditions: oocyte. Type of series: functional, cell-based.
Substrate in series [8]: [H][C@@]12CC[N+](C)(C[C@]1([H])C=C)[C@@]([H])([C@@H](O)c1ccnc3ccc(OC)cc13)C2
The description is as §1. The series is classed as functional, cell-based, Oocyte.

Substrate in series [9]: C=C[C@H]1C[N+]2(C)CC[C@H]1C[C@H]2[C@H](O)c1ccnc2ccc(OC)cc12
Described as §1. Type of series: functional, cell-based, Oocyte.

Substrate in series [10]: CC[N+](C)(CC)CCNC(=O)c1ccc(N=[N+]=[N-])cc1
The series is described as §1. Type of series: functional, cell-based, Oocyte.

Substrate in series [11]: CCCC[N+](C)(CCCC)CCCC
The series is described as §1. Type of series: functional, cell-based, Oocyte.

As for `CC1(CCC[N+]23CCC(CC2)CC3)N=N1`, the Activity entry in series [1] and in series [2] was “substrate [+]” throughout.
Turning to `CC[N+](C)(CC)CCNC(=O)c1ccc(N=[N+]=[N-])cc1.[I-]` [AZIDOPROCAINAMIDE METHOIODIDE], the Activity entry in series [3], in series [4] and in series [5] was “inhibitor [+]” throughout.
With `CO[C@H]1C[C@H](O[C@H]2CC[C@]3(C=O)[C@H]4CC[C@]5(C)[C@@H](C6=CC(=O)OC6)CC[C@]5(O)[C@@H]4CC[C@]3(O)C2)O[C@H](C)[C@H]1O[C@@H]1O[C@H](CO[C@@H]2O[C@H](CO)[C@@H](O)[C@H](O)[C@H]2O)[C@@H](O)[C@H](O)[C@H]1O`, the Activity entry in [5] and in series [6] was “inhibitor [+]” in each case.
For the molecule `C=CC[N+]1([C@H]2C[C@H]3[C@@H]4CC[C@H]5C[C@H](O)[C@@H](N6CCOCC6)C[C@]5(C)[C@H]4CC[C@]3(C)[C@H]2OC(C)=O)CCCC1` [ROCURONIUM], the Activity entry in series [3] and in series [7] was “inhibitor [+]” each time.
Take `CCC1C[N+]2(CCCC3(C)N=N3)C3CC45c6ccccc6N(C)C4C2CC1C3C5O` (stereo unspecified): the Activity result in [1] and in [2] was “substrate [+]” throughout.
Turning to `C=C[C@H]1C[N@@]2CC[C@H]1C[C@@H]2[C@@H](O)c1ccnc2ccc(OC)cc12` [QUINIDINE], the Activity entry in [3], in [4] and in series [5] was “inhibitor [+]” throughout.
Regarding `C[C@@H]1O[C@@H](O[C@H]2C[C@@H](O)[C@]3(CO)[C@H]4[C@H](O)C[C@]5(C)[C@@H](C6=CC(=O)OC6)CC[C@]5(O)[C@@H]4CC[C@]3(O)C2)[C@H](O)[C@H](O)[C@H]1O` [OUABAIN], the Activity result in series [6] was “inhibitor [+]”.
Regarding `C=C[C@H]1C[N+]2(C)CC[C@H]1C[C@@H]2[C@@H](O)c1ccnc2ccc(OC)cc12`, the Activity result in [3], in [4] and in [5] was “inhibitor [+]” each time.

B1: Solute carrier family 22 member 1 (Rattus norvegicus) (protein)
chain: T2 sequence (Q63089 whole entry)
As to B1, the Michaelis-Menten constant (Km) in [8] was 7.4 µM; in series [9], 17.3 µM and 17 µM; in series [10] it was 54 µM; in series [11], 34 µM.

B2: Solute carrier family 22 member 1 (Homo sapiens) (protein)
chain: T1 sequence (O15245 whole entry)
For the molecule B2, the Km in series [8] is 11.5 µM and 12 µM; in series [9] it was 19.5 µM and 20 µM; in series [10], 101 µM; in series [11], 53 µM.
